These results are taken from patent US20030109920A1, “Engineered animal tissue” (The Regents of the University of California, priority 2001, published 2003).

Common to all, as to format: cell-based, human
One assay deals with MMP-9. The assay is described as follows: Gelatin zymogram assay of MMP-9 in IL-8 treated artificial tissue. The note with it: Cell/ECM extracts and culture medium (supernatants); samples collected 24 hours after IL-8 treatment (FIG. 4). How it is done:
(§1) Cell cultures: Three dimensional artificial tissues were created as described above in Example 1 using primary normal human microvascular endothelial cells from adult lung (hMVEC; Clonetics), and primary adult normal human dermal fibroblasts (NHDF; Clonetics). The cultures were set up in either 24-well plates or Transwell units (Becton Dickinson) with polyethylene tetraphthalate filters containing 4 μm pores. Cultures were maintained at 37° C. and of 5% CO2 for at least 2 weeks. Medium was changed 24 hours after the cultures were started and then fed every 48 hours.
Zymography: Zymography was performed using 10% denaturing polyacrylamide gels as previously described (Paech and Christiansen. (1994) In Cell biology: a laboratory handbook. (J. Celis, Ed.) V.3 pp.264-271 San Diego: Academic Press). Briefly, gels to test for gelatinolytic activity contained 1% gelatin (Sigma) and were cast 12 hours before the sample separation. Protein samples were separated at 4° C. with 10 mA constant current for each gel. The proteins were renatured using two washes of 15 minutes each in 2.5% Triton-X100 twice at RT. […]

For another assay, the system named is VE-cadherin. The assay is described as follows: IL-8 treatment of artificial tissue, phosphorylation of VE-Cadherin by immunoblot. Particulars: artificial tissue treated with IL-8 at 50, 100, 300, 600, 1000 ng/ml for 30 minutes; immunoblot (FIG. 3). How it is done:
as §1
(§2) Immunoblotting: SDS-PAGE was performed using 10% separating Doucet gels (Doucet, J., and J. Trifaro. A discontinous and highly porous sodium dodecyl sulfatepolyacrylamide slab gel system of high resolution. Anal. Biochem. (1988) 168:265-271.). Protein transfer to nitrocellulose membranes was performed using a wet-transfer apparatus (BioRad) at 100V for 45 min at room temperature. The membranes were blocked for 1 hour in 5% BSA in TTBS (0.05% Tween in Tris buffered saline) and incubated overnight at 4° C. in primary antibody diluted in 1% BSA in TTBS. The membranes were washed 3 times for 20 min each with TTBS, incubated in anti-mouse or anti-rabbit HRP (1:10,000) in 1% BSA for 1 hr, and washed 3 times for 20 minutes each with TTBS. The antibody bound to the membrane was visualized using ECL chemiluminescent kit (Amersham). […]
(In western blotting, separated proteins are transferred to a membrane and probed.)

The test system of the next assay is PECAM-1. The assay is described as follows: IL-8 treatment of artificial tissue, phosphorylation of PECAM-1 by immunoblot. Particulars: artificial tissue treated with IL-8 at 50, 100, 300, 600, 1000 ng/ml for 30 minutes; immunoblot (FIG. 3). The protocol:
as §1, §2

As to “IL-8: human chemokine IL-8, used as test compound on the artificial tissue”, in the assay on MMP-9, the MMP-9 activation entry was “increases MMP-9 production and activation in a dose-dependent manner”; the MMP-9 production result was “increases MMP-9 production and activation in a dose-dependent manner”. Besides, the “phosphorylation of VE-cadherin in microvessels” value in the assay with VE-cadherin is recorded as “stimulates the phosphorylation”. The “phosphorylation of PECAM in microvessels” value in the assay with PECAM-1 is listed as “stimulates the phosphorylation”.
